In one test the target is T1, RORγ (Homo sapiens, UniProt P51449).
T1 construct: expressed in transfected cells
T1 sequence (P51449 1-497 isoform P51449-2): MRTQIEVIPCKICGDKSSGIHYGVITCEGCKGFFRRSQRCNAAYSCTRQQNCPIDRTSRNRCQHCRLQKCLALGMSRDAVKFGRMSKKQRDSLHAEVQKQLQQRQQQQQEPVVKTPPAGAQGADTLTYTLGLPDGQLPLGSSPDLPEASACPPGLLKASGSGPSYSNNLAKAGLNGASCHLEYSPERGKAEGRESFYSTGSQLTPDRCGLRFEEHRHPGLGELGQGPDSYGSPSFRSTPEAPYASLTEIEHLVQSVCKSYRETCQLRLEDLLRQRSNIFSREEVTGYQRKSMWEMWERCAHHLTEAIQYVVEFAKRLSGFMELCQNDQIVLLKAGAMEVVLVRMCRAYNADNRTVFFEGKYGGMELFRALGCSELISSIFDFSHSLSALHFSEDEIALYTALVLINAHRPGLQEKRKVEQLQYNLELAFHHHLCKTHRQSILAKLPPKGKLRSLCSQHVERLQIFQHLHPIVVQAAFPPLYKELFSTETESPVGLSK
The experiment in a line: Jurkat Cell Luciferase Assay. In kind it is cell-based. The following applies: mean pIC50 of multiple test results if tested more than once; Jurkat cells, human IL17 promoter luciferase reporter, RORγt overexpression. The source says:
RORγ is known to bind to a CNS (conserved non-coding sequences) enhancer element in the IL17 promoter. In this assay, RORγ activity is indirectly assessed using a luciferase reporter construct which contains the human IL17 promoter having the RORγ-specific CNS enhancer element. Inhibition of RORγ activity by a compound will result in a decrease in luciferase activity of Jurkat cells transfected with the reporter construct.
For the luciferase reporter plasmid, the 3 Kb human IL17 promoter containing the RORγ-specific CNS enhancer element was PCR amplified from human genomic DNA and cloned into a pGL4-Luc2/hygro reporter plasmid sequentially as XhoI-HindIII (1.1 Kb) and KpnI-XhoI (1.9 Kb) fragments. For the 1.1 Kb fragment, PCR was used to amplify human IL17 proximal promoter region from genomic DNA of 293T cells using primers as follows: forward primer, 5′-[…]-3′ (XhoI site is underlined) and reverse primer, 5′-[…]-3′ (HindIII site is underlined). The 1.1 kb DNA bands were excised, purified, and inserted into pMD19-T Simple Vector (Takara). […]
Compounds were dissolved in DMSO at three concentrations, 10 mM, 400 uM and 16 uM, and were dispensed into 384-wells assay plate at 40 nl, 12.5 nl, 5 nl respectively. The volume was adjusted with pure DMSO to a give a final uniform volume of 40 nl Jurkat cells described above were counted and centrifuged. […]
In general terms: A reporter such as luciferase makes a cellular process visible.

For the next test, the system named is Mouse CD4+ cells. The test can be described thus: Th17 Cell Differentiation Assay. In kind it is cell-based. The following applies: mean pIC50 of multiple test results if tested more than once, IL-17 ELISA. The method, then:
Mouse CD4+ cells were purified using the CD4+ T Cell Isolation II Kit according to manufacturer's instructions (Miltenyi Biotec). 96 well plates were pre-coated with anti-mCD3 antibody. Un-coated wells were used as controls. CD4+ Cells were resuspended in RPMI 1640 complete medium and were added to the 96-well plates. Cytokine cocktail and the compound were then added to the wells. Antibodies and cytokines (all from R&D Systems) used in the assay were selected from the following: anti-mCD3; anti-mCD28; anti-mIFNγ; anti-mIL4; mIL-6; mIL-23; mIL-1β; hTGF-β1. The culture was incubated at 37° C. for 3 days and supernatants were collected for ELISA. The IL-17 ELISAs were performed according to manufacturer's instructions (R&D Systems). The results were analyzed using Prism software with non-linear regression to determine pIC50.
The Th17 differentiation culture described above was maintained for 5 days and cells were analyzed by IL-17 and IFN-γ intracellular staining according to manufacturer's instructions (BD Biosciences).
On the technique in general: ELISA stands for enzyme-linked immunosorbent assay.

The target of another test is T2, RORγ-LBD (Homo sapiens, UniProt P51449).
T2 construct: adding an appropriate amount of biotinylated RORγ-LBD and APC-labeled streptavidin
T2 sequence (P51449 269-508 limits assumed): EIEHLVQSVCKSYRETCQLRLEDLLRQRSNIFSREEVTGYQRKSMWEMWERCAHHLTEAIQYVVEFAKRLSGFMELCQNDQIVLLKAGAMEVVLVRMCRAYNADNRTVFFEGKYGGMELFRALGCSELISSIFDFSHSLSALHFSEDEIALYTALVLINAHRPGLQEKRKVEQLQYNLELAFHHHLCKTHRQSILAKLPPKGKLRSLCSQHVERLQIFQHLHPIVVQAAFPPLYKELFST
The test can be described thus: Fluorescence Energy Transfer (FRET) Assay. It counts as biochemical. The following applies: mean pIC50 of multiple test results if tested more than once; SRC1/RORγ-LBD with 0.2 μM surrogate agonist. The method, then: The assays were performed in an assay buffer consisting of 50 mM NaF, 50 mM 3-(N-morpholino)propanesulfonic acid, pH 7.5, 50 μM 3-[(3-cholamidopropyl)dimethylammonio]-propanesulfonate, 0.1 mg/mL bovine serum albumin, and 10 mM dithiothreitol in 384-well plates (Greiner 784076, Longwood, Fla.). The total volume was 10 μL/well. The europium-labeled SRC1 solution was prepared by adding an appropriate amount of biotinylated SRC and europium labeled streptavidin (PerkinElmer Life and Analytical Sciences, Waltham, Mass.) into assay buffer, with final concentrations of 27 and 3.3 nM, respectively. The allophycocyanin (APC)-labeled-LBD solution was prepared by adding an appropriate amount of biotinylated RORγ-LBD and APC-labeled streptavidin (CR130-100; PerkinElmer Life and Analytical Sciences) at a final concentration of 33 nM each. After 15 min of incubation at room temperature, a 20-fold excess of biotin was added to block the remaining free streptavidin. […] The plates were incubated for 1 h at room temperature and then read on ViewLux (PerkinElmer Life and Analytical Sciences) in LANCE mode configured for europeum-APC labels. Data were collected and analyzed by Activitybase.

For test [1], the target named is T3, RORγ ligand binding domain (RORγ-LBD) (Homo sapiens, UniProt P51449).
T3 construct: modified polyhistidine tag MKKHHHHHHLVPRGS (N); made in house; host or cells: E. coli BL21(DE3)
T3 sequence (P51449 263-518): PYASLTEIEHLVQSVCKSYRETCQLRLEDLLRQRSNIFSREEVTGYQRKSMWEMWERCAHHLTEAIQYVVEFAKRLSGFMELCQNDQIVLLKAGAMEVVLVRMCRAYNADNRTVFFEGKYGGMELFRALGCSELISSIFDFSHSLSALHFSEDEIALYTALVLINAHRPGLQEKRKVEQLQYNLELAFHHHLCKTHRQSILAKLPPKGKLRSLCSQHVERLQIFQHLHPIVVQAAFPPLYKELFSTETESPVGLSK
The test can be described thus: Dual Fluorescence Energy Transfer (FRET) Assay. In kind it is biochemical. The settings on record: mean pIC50 of multiple test results if tested more than once; RORγ-LBD/SRC1(2) peptide interaction. From the text:
This assay is based on the knowledge that nuclear receptors interact with cofactors (transcription factors) in a ligand dependent manner. RORγ is a typical nuclear receptor in that it has an AF2 domain in the ligand binding domain (LBD) which interacts with co-activators. The sites of interaction have been mapped to the LXXLL motifs in the co-activator SRC1(2) sequences. Short peptide sequences containing the LXXLL motif mimic the behavior of full-length co-activator.
The assay measures ligand-mediated interaction of the co-activator peptide with the purified bacterial-expressed RORγ ligand binding domain (RORγ-LBD) to indirectly assess ligand binding. RORγ has a basal level of interaction with the co-activator SRC1(2) in the absence of ligand, thus it is possible to find ligands that inhibit or enhance the RORγ/SRC1(2) interaction.
Human RORγ Ligand Binding Domain (RORγ-LBD) was expressed in E. coli strain BL21(DE3) as an amino-terminal polyhistidine tagged fusion protein. DNA encoding this recombinant protein was sub-cloned into a modified pET21a expression vector (Novagen). […]
Approximately 50 g E. coli cell pellet was resuspended in 300 mL of lysis buffer (30 mM imidazole pH 7.0 and 150 mM NaCl). […] After washing to baseline absorbance with the equilibration buffer, the column was developed with a gradient from 30 to 500 mM imidazole pH 7.0. […]

Molecules are shown by their SMILES.

Usually IC50 stands for the concentration that inhibits the measured activity by half.

Turning to `Cc1ncc(C(=O)Nc2cc(Cl)cc(CN3CCN(C(=O)[C@@H]4CCOC4)[C@@H](C)C3)c2C)cc1C#N` (single isomer, unassigned) [Example 91], the IC50 is around 12.6 nM against RORγ, around 17.4 nM with Mouse CD4+ cells, around 251 nM at RORγ-LBD and around 794 nM in test [1].
Take `Cc1ncc(C(=O)Nc2cc(Cl)cc(CN3CCN(C(=O)[C@H]4CCOC4)[C@@H](C)C3)c2C)cc1F` [Example 57, N-(5-chloro-2-methyl-3-(((S)-3-methyl-4-((S)-tetrahydrofuran-3-carbonyl)piperazin-1-yl)methyl)phenyl)-5-fluoro-6-methylnicotinamide]: the IC50 against RORγ is around 25.1 nM; with Mouse CD4+ cells it was around 81.3 nM; on RORγ-LBD, around 126 nM; in test [1], around 200 nM.

The values above are taken from patent US9868724B2, “Compounds” (GLAXOSMITHKLINE INTELLECTUAL PROPERTY DEVELOPMENT LIMITED, priority 2014, dated 2018).
